16 compounds from US20220194938A1, “NOVEL COMPOUNDS AND PHARMACEUTICAL COMPOSITIONS THEREOF FOR THE TREATMENT OF INFLAMMATORY DISORDERS” (GALAPAGOS NV, priority 2019, published 2022) can be followed below.

By IC50 is commonly meant the concentration that inhibits the measured activity by half.

Like-named read-outs stand apart in the source and are kept apart here.

The assay concerns CL097 triggered IFNα and TNFα release in human whole blood. In words: Ex vivo human IFNα and TNFα release inhibition (whole blood assay, CL097 triggered). Conditions: CL097 2 μg/mL, 3 h 30 min. Type of assay: cell-based. The text has this: 4.10.1. Ex Vivo Human IFNα and TNFα Release Inhibition (Whole Blood Assay)
The aim of the assay is to evaluate the activity of compounds of the invention on the activated TLR/IRAK-4 pathway in an ex vivo human whole blood setting. Toll-like receptors (TLRs) are pattern recognition receptors that recognize a wide variety of microbial molecules, called pathogen-associated molecular patterns (PAMPs). Human TLR7 and TLR8 recognize imidazoquinoline compounds (e.g., CL097—CAS n #1026249-18-2) and single stranded RNAs as their natural ligands. Activation of TLRs leads to the production of several cytokines (e.g., IFNα, TNFα, IL-8, IL-6) by the TLR agonist-treated cells, whereas IRAK4 leads to the production of IFNα. Cytokine release is used as readout in this assay and represents a measure for the level of inhibition of the TLR/IRAK-4 pathway by the tested compound. It should be noted that in the context of the complete organism, other sources for these cytokines exist that are not dependent on the TLR/IRAK-4 pathway, such as e.g., macrophages (upon activation of the Fcγ receptor (Yan et al. 2012)) or T cells (upon activation of the T cell receptor (Brehm, Daniels, and Welsh 2005)).
4.10.1.1. Experimental Design
Blood was collected from healthy volunteers into lithium heparin tubes by venipuncture, then gently inverted several times to prevent clotting and incubated for at least 15 min at 37° C. on a rocking mixer shaker. Then, 100 μL of blood was dispensed into polypropylene 96-well microplate and pre-incubated in duplicate with 0.3% DMSO or test compound at different concentrations (from 30 to 0.01 μM, 3-fold dilutions to get 0.3% DMSO at the final) for 15 min at 37° C. After this pre-incubation, blood was triggered with CL097 (2 μg/mL from 1 mg/mL solution in water; InvivoGen, tlr1-c97) for 3 h 30 min at 37° C. Microtubes were centrifuged at 5000×g for 10 min at 4° C. and approximately 40 μL of plasma were collected into a polystyrene 96-well plate. Plasma could be analyzed freshly, within 30 min after triggering, or frozen at −80° C. Finally, the quantification of TNFα and IFNα were performed in the plasma using AlphaLISA Kit for […] according to the manufacturer's instructions and read on the Ensight (PerkinElmer).
A standard curve was created by plotting on log-log the mean absorbance on the y-axis against the concentration on the x-axis and a 4 PL was made through the points. For each blood sample, the IFNα concentrations of the samples were determined from the fit.
Data were then expressed as a percentage of inhibition (PIN) for each replicate using the formula:
With mean IFNα with CL097=mean IFNα concentration of replicate samples triggered with CL097; IFNαsample1=IFNα concentration of sample 1; mean IFNα with vehicle=mean IFNα concentration of replicate samples treated with vehicle.
For each blood sample, the TNFα concentrations of the samples were determined from the fit. Data were then expressed as a percentage of inhibition (PIN) for each replicate using the formula:
With mean TNFα with CL097=mean TNFα concentration of replicate samples triggered with CL097; TNFαsample1=TNFα concentration of sample 1; mean TNFα with vehicle=mean TNFα concentration of replicate samples treated with vehicle.
Curve fitting for pIC50 determination were generated using mean PIN±sem. Graphs and pIC50 calculations were derived using Prism 5.03 software (GraphPad).

As for `[2H]C([2H])([2H])NC(=O)c1cc2nc(CCC(C)(C)O)cn2cc1NC(=O)c1cccc(C(F)(F)F)n1` [Compound 1, 2-(3-hydroxy-3-methyl-butyl)-N-(trideuteriomethyl)-6-[[6-(trifluoromethyl)pyridine-2-carbonyl]amino]imidazo[1,2-a]pyridine-7-carboxamide], the IC50 was in the range of 1 to 5 µM (read-out: IFNα IC50) and 0.0001 to 0.5 µM (read-out: TNFα IC50). For `CNC(=O)c1cc2nc(CCC(C)(C)O)cn2cc1NC(=O)c1cccc(C(F)(F)F)n1` [Compound 2, 2-(3-hydroxy-3-methyl-butyl)-N-methyl-6-[[6-(trifluoromethyl)pyridine-2-carbonyl]amino]imidazo[1,2-a]pyridine-7-carboxamide], in that order: 0.5 to 1 µM and 0.0001 to 0.5 µM.

As for `COc1cc2nc(CCC(C)(C)O)cn2cc1NC(=O)c1cccc(C(F)(F)F)n1` [Compound 3, N-[2-(3-hydroxy-3-methyl-butyl)-7-methoxy-imidazo[1,2-a]pyridin-6-yl]-6-(trifluoromethyl)pyridine-2-carboxamide], the IC50 (read-out: IFNα IC50) is 1 to 5 µM. On the same count and under the same terms, then `COc1cc2nc(CCC(C)(C)O)cn2cc1NC(=O)c1cccn(C)c1=O` [Compound 4, N-[2-(3-hydroxy-3-methyl-butyl)-7-methoxy-imidazo[1,2-a]pyridin-6-yl]-1-methyl-2-oxo-pyridine-3-carboxamide], with 0.0001 to 0.5 µM.

Take `COc1cc2nc(CCC(C)(C)O)cn2cc1NC(=O)c1cccn(C2CC2)c1=O` [Compound 5, 1-cyclopropyl-N-[2-(3-hydroxy-3-methyl-butyl)-7-methoxy-imidazo[1,2-a]pyridin-6-yl]-2-oxo-pyridine-3-carboxamide]: the IC50 (read-out: IFNα IC50) was 0.0001 to 0.5 µM.

`COc1cc2nc(CCC(C)(C)O)cn2cc1NC(=O)c1cccc(C)n1` [Compound 6, N-[2-(3-hydroxy-3-methyl-butyl)-7-methoxy-imidazo[1,2-a]pyridin-6-yl]-6-methyl-pyridine-2-carboxamide]: under “read-out: IFNα IC50”, the IC50 is 0.0001 to 0.5 µM.

For the compound `COc1cc2nc(CCC(C)(C)O)cn2cc1NC(=O)c1cccc(C(F)F)n1` [Compound 7, 6-(difluoromethyl)-N-[2-(3-hydroxy-3-methyl-butyl)-7-methoxy-imidazo[1,2-a]pyridin-6-yl]pyridine-2-carboxamide], the half-inhibitory concentration (IC50) (read-out: IFNα IC50) fell in the range of 0.0001 to 0.5 µM.

As to `COc1cc2nc(CCC(C)(C)O)cn2cc1NC(=O)c1cccn(C(F)F)c1=O` [Compound 12, 1-(difluoromethyl)-N-[2-(3-hydroxy-3-methyl-butyl)-7-methoxy-imidazo[1,2-a]pyridin-6-yl]-2-oxo-pyridine-3-carboxamide], under “read-out: IFNα IC50”, the IC50 lay in the range of 0.5 to 1 µM. The same measure, in the same setting: the same measure for `COc1cc2nc(CCS(C)(=O)=O)cn2cc1NC(=O)c1cccc(C(F)(F)F)n1` [Compound 24, N-[7-methoxy-2-(2-methylsulfonylethyl)imidazo[1,2-a]pyridin-6-yl]-6-(trifluoromethyl)pyridine-2-carboxamide]: 0.5 to 1 µM; for `COc1cc2nc(CCS(C)(=O)=O)cn2cc1NC(=O)c1cccn(C2CC2)c1=O` [Compound 25, 1-cyclopropyl-N-[7-methoxy-2-(2-methylsulfonylethyl)imidazo[1,2-a]pyridin-6-yl]-2-oxo-pyridine-3-carboxamide]: 0.0001 to 0.5 µM. Take `CC(C)(O)CCc1cn2cc(NC(=O)c3cccc(C(F)(F)F)n3)c(C(N)=O)cc2n1` [Compound 31, 2-(3-hydroxy-3-methyl-butyl)-6-[[6-(trifluoromethyl)pyridine-2-carbonyl]amino]imidazo[1,2-a]pyridine-7-carboxamide]: the IC50 is, setting by setting: (read-out: IFNα IC50) 0.0001 to 0.5 µM; (read-out: TNFα IC50) 0.0001 to 0.5 µM. As to `COCCc1cn2cc(NC(=O)c3cccc(C(F)(F)F)n3)c(OC)cc2n1` [Compound 35, N-[7-methoxy-2-(2-methoxyethyl)imidazo[1,2-a]pyridin-6-yl]-6-(trifluoromethyl)pyridine-2-carboxamide], the IC50 is over 5 µM (read-out: IFNα IC50) and over 5 µM (read-out: TNFα IC50).

In the case of `CCOc1c(NC(=O)c2cccn(C3CC3)c2=O)cn2cc(CCC(C)(C)O)nc2c1F` [Compound 37, 1-cyclopropyl-N-[7-ethoxy-8-fluoro-2-(3-hydroxy-3-methyl-butyl)imidazo[1,2-a]pyridin-6-yl]-2-oxo-pyridine-3-carboxamide], where the note is “read-out: TNFα IC50”, the IC50 was in the range of 1 to 5 µM. On to `CCOc1c(NC(=O)c2cccn(C3CC3)c2=O)cn2cc(CCS(C)(=O)=O)nc2c1F` [Compound 39, 1-cyclopropyl-N-[7-ethoxy-8-fluoro-2-(2-methylsulfonylethyl)imidazo[1,2-a]pyridin-6-yl]-2-oxo-pyridine-3-carboxamide], for which the IC50 was in the range of 0.5 to 1 µM (read-out: IFNα IC50) and 0.5 to 1 µM (read-out: TNFα IC50). Regarding `COc1c(NC(=O)c2cccn(C3CC3)c2=O)cn2cc(CCC(C)(C)O)nc2c1F` [Compound 42, 1-cyclopropyl-N-[8-fluoro-2-(3-hydroxy-3-methyl-butyl)-7-methoxy-imidazo[1,2-a]pyridin-6-yl]-2-oxo-pyridine-3-carboxamide], the IC50 by setting is: (read-out: IFNα IC50) 0.5 to 1 µM; (read-out: TNFα IC50) 0.0001 to 0.5 µM. For `CC(C)(O)CCc1cn2cc(NC(=O)c3cccc(C(F)(F)F)n3)c(C(=O)NCC(F)F)cc2n1` [Compound 48, N-(2,2-difluoroethyl)-2-(3-hydroxy-3-methylbutyl)-6-(6-(trifluoromethyl)picolinamido)imidazo[1,2-a]pyridine-7-carboxamide], in that order: 1 to 5 µM and 1 to 5 µM.
